The target of assay [1] is Histone acetyltransferase KAT6A (Homo sapiens) (UniProt Q92794). The experiment in a line: Inhibition of recombinant human KAT6A (488 to 778 residues) using histone H3 peptide and [3H]-acetyl-coA as substrates at 200 uM incubated for 1 hrs by liquid scintillation counter analysis.
A further assay deals with NCI-H1299. The experiment in a line: Induction of autophagy in human NCI-H1299 cells stably expressing EGFP-LC3 assessed as increase in EGFP-LC3 puncta formation at 10 to 100 uM incubated for 48 hrs by Fluorescence microscopy. To be noted: dose 10-100 µM. The format is functional, cell-based.
Assay [2] concerns HeLa. The experiment in a line: Antiproliferative activity against human HeLa cells assessed as cell proliferation inhibition at 10 to 100 uM incubated for 72 hrs by MTT assay. To be noted: dose 10-100 µM. The format is functional, cell-based.
The target in assay [3] is Histone acetyltransferase KAT7 (Homo sapiens) (UniProt O95251). The experiment in a line: Inhibition of recombinant human full length KAT7 using histone H3 peptide and [3H]-acetyl-coA as substrates at 200 uM incubated for 1 hrs by liquid scintillation counter analysis.
Chain of Histone acetyltransferase KAT7 (Homo sapiens) (O95251 whole entry): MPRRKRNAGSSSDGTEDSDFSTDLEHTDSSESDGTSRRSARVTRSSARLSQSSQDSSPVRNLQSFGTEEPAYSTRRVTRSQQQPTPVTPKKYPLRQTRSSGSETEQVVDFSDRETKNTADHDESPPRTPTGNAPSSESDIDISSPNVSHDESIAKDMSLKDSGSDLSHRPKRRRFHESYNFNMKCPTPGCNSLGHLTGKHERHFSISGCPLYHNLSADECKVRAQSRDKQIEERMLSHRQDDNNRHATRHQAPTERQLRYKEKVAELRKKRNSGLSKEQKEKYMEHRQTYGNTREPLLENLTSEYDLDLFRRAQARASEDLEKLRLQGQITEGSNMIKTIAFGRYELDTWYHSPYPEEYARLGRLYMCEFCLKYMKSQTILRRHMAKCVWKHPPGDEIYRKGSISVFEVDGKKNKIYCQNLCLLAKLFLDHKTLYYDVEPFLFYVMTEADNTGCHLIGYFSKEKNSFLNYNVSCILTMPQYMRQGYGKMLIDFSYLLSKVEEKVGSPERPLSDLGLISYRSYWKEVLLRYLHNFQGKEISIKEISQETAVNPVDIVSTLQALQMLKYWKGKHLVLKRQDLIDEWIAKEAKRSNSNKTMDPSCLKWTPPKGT
Assay [4] concerns the target T1, Histone acetyltransferase KAT8 (Homo sapiens) (UniProt Q9H7Z6).
T1 sequence (whole entry): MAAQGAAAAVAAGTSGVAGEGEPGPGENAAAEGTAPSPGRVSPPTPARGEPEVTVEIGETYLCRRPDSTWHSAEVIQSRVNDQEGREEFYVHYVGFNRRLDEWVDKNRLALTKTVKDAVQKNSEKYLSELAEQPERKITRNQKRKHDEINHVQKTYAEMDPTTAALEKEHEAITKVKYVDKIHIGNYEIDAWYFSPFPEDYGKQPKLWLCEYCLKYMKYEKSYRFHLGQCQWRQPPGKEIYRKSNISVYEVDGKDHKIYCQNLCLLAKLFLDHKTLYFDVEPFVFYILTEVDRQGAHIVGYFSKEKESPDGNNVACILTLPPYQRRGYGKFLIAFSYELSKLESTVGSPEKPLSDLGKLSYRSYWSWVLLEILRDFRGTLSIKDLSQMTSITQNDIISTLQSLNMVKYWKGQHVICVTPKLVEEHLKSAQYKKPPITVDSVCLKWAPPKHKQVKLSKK
The experiment in a line: Binding affinity to KAT8 in human HT-29 cells at 59 degreeC at 100 nM incubated for 4 hrs by […] analysis. The format is cell-based.

The subject of assay [5] is HCT-116. The experiment in a line: Antiproliferative activity against human HCT-116 cells assessed as cell proliferation inhibition at 100 uM incubated for 72 hrs by MTT assay. The format is functional. Details: scale not given: the % may be the effect or the level left. (In general: Tetrazolium dyes change colour on reduction, which living cells bring about.)
Assay [6] deals with HCT-116. The experiment in a line: Downregulation of HOXA9A mRNA expression in human HCT-116 cells at 100 uM incubated for 48 hrs by qRT-PCR analysis. The class given is functional, cell-based. A general note: Real-time PCR tracks product formation cycle by cycle.
Assay [7] addresses T1, Histone acetyltransferase KAT8 (Homo sapiens). The experiment in a line: Inhibition of human KAT8 in human HT-29 cells assessed as decrease in histone H4K16 acetylation level by measuring fluorescence intensity in nucleus at 50 uM incubated for 24 hrs by DAPI staining based immunofluorescence analysis. The class given is cell-based.
The test system of assay [8] is HeLa. The experiment in a line: Induction of autophagy in human HeLa cells stably expressing EGFP-LC3 assessed as increase in p62 expression level at 10 to 100 uM incubated for 48 hrs by Western blot analysis. The class given is functional, cell-based. To be noted: dose 10-100 µM. (Immunoblotting shows a protein as a band on a membrane.)
The subject of assay [9] is HeLa. The experiment in a line: Induction of autophagy in human HeLa cells stably expressing EGFP-LC3 assessed as change in LC3-II/LC3-I ratio at 10 to 100 uM incubated for 48 hrs by Western blot analysis. The class given is functional, cell-based. To be noted: dose 10-100 µM.

The record followed here is ChEMBL document CHEMBL5338773, “First-in-Class Selective Inhibitors of the Lysine Acetyltransferase KAT8” (J Med Chem, 2023).

The source made the active and inactive calls. The calls are words filed in the database; no cut-off is given here.

Chain of Histone acetyltransferase KAT6A (Homo sapiens) (Q92794 whole entry, looked up, the tested form may be a part): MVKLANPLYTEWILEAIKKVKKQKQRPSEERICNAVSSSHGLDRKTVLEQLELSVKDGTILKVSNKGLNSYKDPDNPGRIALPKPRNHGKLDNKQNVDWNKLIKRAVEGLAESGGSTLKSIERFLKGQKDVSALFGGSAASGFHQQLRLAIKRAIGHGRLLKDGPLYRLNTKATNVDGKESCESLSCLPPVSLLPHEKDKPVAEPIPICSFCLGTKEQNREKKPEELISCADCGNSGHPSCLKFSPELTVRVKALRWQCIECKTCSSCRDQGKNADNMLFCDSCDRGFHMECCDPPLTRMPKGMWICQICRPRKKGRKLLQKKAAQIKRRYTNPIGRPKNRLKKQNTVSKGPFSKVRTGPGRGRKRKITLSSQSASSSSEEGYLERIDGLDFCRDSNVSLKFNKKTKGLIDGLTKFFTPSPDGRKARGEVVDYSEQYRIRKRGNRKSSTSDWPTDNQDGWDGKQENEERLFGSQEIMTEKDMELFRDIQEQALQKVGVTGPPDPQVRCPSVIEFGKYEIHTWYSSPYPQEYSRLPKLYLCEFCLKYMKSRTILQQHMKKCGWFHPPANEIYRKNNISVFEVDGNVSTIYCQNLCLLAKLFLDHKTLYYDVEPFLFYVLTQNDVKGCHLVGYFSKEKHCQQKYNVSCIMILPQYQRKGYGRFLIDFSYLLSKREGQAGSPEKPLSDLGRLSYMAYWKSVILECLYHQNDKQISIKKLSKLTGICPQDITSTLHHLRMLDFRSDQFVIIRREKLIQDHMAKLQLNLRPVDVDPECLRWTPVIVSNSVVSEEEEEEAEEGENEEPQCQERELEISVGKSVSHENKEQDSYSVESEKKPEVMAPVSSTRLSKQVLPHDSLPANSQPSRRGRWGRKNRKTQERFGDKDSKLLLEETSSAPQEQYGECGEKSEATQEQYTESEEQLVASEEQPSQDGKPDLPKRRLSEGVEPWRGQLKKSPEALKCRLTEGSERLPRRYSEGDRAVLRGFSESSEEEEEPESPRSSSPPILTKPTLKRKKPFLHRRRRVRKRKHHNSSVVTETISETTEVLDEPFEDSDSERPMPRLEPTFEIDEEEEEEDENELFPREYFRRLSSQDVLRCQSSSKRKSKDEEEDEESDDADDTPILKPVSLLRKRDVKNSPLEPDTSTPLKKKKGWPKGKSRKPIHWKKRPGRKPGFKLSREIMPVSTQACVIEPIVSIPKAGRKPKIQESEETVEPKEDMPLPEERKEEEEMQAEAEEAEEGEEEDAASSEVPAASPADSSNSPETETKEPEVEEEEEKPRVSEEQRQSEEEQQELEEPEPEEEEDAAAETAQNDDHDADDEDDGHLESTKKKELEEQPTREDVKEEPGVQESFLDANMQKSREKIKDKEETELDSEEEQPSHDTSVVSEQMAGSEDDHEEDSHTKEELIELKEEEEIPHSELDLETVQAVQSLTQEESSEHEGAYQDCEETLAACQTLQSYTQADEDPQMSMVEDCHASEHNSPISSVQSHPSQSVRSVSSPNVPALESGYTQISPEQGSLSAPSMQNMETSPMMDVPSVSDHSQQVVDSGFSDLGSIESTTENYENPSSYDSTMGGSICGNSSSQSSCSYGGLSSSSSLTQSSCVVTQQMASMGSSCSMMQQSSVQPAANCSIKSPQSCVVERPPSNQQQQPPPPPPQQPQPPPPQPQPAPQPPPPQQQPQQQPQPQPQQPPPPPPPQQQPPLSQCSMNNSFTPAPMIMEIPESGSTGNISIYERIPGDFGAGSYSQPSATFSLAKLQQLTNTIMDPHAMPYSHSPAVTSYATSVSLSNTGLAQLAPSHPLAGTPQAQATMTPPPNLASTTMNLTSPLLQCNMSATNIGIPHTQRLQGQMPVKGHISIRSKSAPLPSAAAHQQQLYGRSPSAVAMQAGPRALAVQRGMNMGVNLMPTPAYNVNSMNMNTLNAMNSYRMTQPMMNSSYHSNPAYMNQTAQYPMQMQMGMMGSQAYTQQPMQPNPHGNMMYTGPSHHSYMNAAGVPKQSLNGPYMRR

For `CC1=NN(c2ccc(C(=O)O)cc2)C(=O)/C1=C\c1ccc[nH]1`, the inhibition result in assay [1] and in assay [3] was “inactive” throughout. The outcome (with NCI-H1299; with HeLa [2]; in assay [4]) was Active. In addition, the Activity in the assay on HCT-116 [5] is given as over 80%.
Turning to `O=C(O)c1ccc(N2N=C(c3ccccc3)/C(=C/c3ccc[nH]3)C2=O)cc1`, the result (in the assay with HCT-116 [6]; in the assay on HeLa [8]; with NCI-H1299; in the assay with HeLa [9]; in the assay on HeLa [2]; in [4]) was Active. Moreover, the inhibition (in general, the share of the control response that was lost under treatment) in [7] is over 50%.
